Here are results for five compounds from patent US20230088704A1, “A PHARMACEUTICAL COMBINATION FOR THE TREATMENT OF A CANCER” (ABILITY PHARMACEUTICALS S.L., priority 2020, published 2023).

Where two headings read alike, the source gives them in different places.

For one experiment, the system named is JJN-3 cells. Nature of the experiment: Cell viability (MTT) and combination index, ABTL0812 with bortezomib. Format: cell-based. The settings on record: ABTL0812 5 μM, Bortezomib 0.5 nM, alone or combined; 48h. The procedure: (§1) Methods: JJN-3 and OPM2 cells were seeded in 24-well plates and treated with ABTL0812 (5 μM), bortezomib (0.5 and 1 nM respectively) or a combination of both drugs and left in the incubator for 48h (0.5% FBS). Cell viability was studied by the MTT assay and combination index was determined to evaluate a possible synergism.
(§2) Cell viability was evaluated in all cases by MTT assay and the Combination Index (CI), to evaluate synergism, was calculated according to the method of Chou and Talalay (Chou 2006; Chou 2010), as follows: CI=(D)1/(Dx)1+(D)2/(Dx)2, where CI<1, =1, and >1 indicate synergism, additive effect, and antagonism, respectively. In the denominator, (Dx)1 is for D1 “alone” that inhibits a system x %, and (Dx)2 is for D2 “alone” that inhibits a system x %.

The next experiment concerns OPM2 cells. The experiment is described as above. It is filed as cell-based. Particulars: ABTL0812 5 μM, Bortezomib 1 nM, alone or combined; 48h. The procedure:
as §1, §2

Experiment [1] concerns Ishikawa cells. It is filed as in vivo. The settings on record: ABTL0812 oral 120 mg/kg/day; Doxorubicin 5 mg/kg i.p. once a week. The procedure: Methods: Mice were injected with 4×10^6 Ishikawa cells in one flank to induce tumor formation. […] ABTL0812 was administered by the oral route at 120 mg/kg/day. Doxorubicin 5 mg/kg was administered intra-peritoneally once a week. Tumor volume and body weight were monitored 3 times a week.

For experiment [2], the system named is Ishikawa cells. Nature of the experiment: Human endometrial cancer xenograft, ABTL0812 with olaparib. Format: in vivo. The settings on record: ABTL0812 oral 120 mg/kg/day; Olaparib oral 50 mg/kg/day. Here is the method:
Methods: Mice were injected with 4×10^6 Ishikawa cells in one flank to induce tumor formation. […] Olaparib was administered by the oral route 50 mg/kg/day. Tumor volume and body weight were monitored 3 times a week.

The next experiment has as its system PDL1. Nature of the experiment: PDL1 expression in cancer cells by flow cytometry (Example 6.2). Format: cell-based, human. Particulars: Panc-1 cells; ABTL0812 50 μM, IFNγ 2.5 ng/ml or both. Here is the method:
Methods: Human cancer cell lines were incubated with 100 μM of ABTL0812 during 48 hours and collected for staining with anti-PDL1 antibody labeled with a fluorophore. After staining of cells with anti-PDL1 antibody, cells were run on Flow Cytometry (Facs Canto) to analyzed PDL1 levels in cancer cells. Additionally, we incubated Panc-1 cells with ABTL0812 (50 μM), IFNγ (2.5 ng/ml), a master regulator of PDL1 expression or a combination with both. Then, cells were collected, stained with anti-PDL1 antibody and analyzed by Flow Cytometry for the expression of PDL1.

For experiment [3], the system named is Ishikawa cells. Nature of the experiment: Human endometrial cancer xenograft, ABTL0812 with bevacizumab. It is filed as in vivo. Particulars: ABTL0812 oral 120 mg/kg/day; Bevacizumab ip 100 μg/dose every four days. The procedure:
Methods: Mice were injected with 4×10^6 Ishikawa cells in one flank to induce tumor formation. […] Bevacizumab was administered ip at 100 μg/dose, every four days up to four administration. Tumor volume and body weight were monitored 3 times a week.

Consider `CC(C)C[C@H](NC(=O)[C@H](Cc1ccccc1)NC(=O)c1cnccn1)B(O)O` [Bortezomib, reference compound], for which the results for the cell death in the experiment on JJN-3 cells and in the experiment on OPM2 cells were approximately 15% and “around 10%”, respectively. Consider `COc1cccc2c1C(=O)c1c(O)c3c(c(O)c1C2=O)C[C@@](O)(C(=O)CO)C[C@@H]3O[C@H]1C[C@H](N)[C@H](O)[C@H](C)O1` [doxorubicin, reference compound], for which, in the experiment with Ishikawa cells [1], the tumor volume entry was “significantly reduced tumor volume”. Turning to `O=C(c1cc(Cc2n[nH]c(=O)c3ccccc23)ccc1F)N1CCN(C(=O)C2CC2)CC1` [olaparib, reference compound], in the experiment with Ishikawa cells [2], the tumor volume result is “significantly reduced tumor volume”. As for “IFNγ: well described master regulator of PDL1 expression [reference compound]”, the PDL1 levels result in the experiment with PDL1 is “significantly higher levels of PDL1 compared with ABTL0812”.

Take bevacizumab [reference compound]: the tumor volume entry in the experiment on Ishikawa cells [3] is “significantly reduced tumor volume”.
